Several values for one entry are separate records, joined by “and”; a condition that tells them apart may be missing. Identical values can stand only once. Like-named read-outs stand apart in the source and are kept apart here.
Experiments:
[1] = target: T1, human recombinant adrenergic α2B receptor (Homo sapiens, UniProt P18089); experiment: Radioligand binding, adrenergic α2B ([3H]Rauwolscine); settings: for Percentage inhibition of ligand binding, Adrenergic α2B / inhibition at 0.03 µM / inhibition at 0.1 µM / Percentage inhibition of ligand binding, Adrenergic α2B (0.03 μM) / Percentage inhibition of ligand binding, Adrenergic α2B (0.1 μM): [3H]Rauwolscine; for Ki: read-out: Ki α2B
T1 construct: expressed in transfected cells; host or cells: CHO-K1
T1 sequence (P18089 1-450): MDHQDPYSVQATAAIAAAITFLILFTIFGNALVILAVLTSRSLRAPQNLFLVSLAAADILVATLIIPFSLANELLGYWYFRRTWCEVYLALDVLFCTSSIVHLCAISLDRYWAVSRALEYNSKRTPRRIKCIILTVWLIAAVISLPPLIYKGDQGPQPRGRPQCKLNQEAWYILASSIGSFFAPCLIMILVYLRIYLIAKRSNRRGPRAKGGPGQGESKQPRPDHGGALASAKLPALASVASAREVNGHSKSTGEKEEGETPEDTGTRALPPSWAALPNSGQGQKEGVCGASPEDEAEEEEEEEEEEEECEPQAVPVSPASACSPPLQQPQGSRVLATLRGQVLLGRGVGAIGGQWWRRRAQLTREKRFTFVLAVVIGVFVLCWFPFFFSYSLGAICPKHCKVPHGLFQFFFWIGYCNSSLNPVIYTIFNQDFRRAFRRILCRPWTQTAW
Outline: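 Readout: percent inhibition of specific [3H]Rauwolscine binding, measured by filtration and counting. Conditions: CHO-K1 cell-expressed receptor, 2.5 nM radioligand, 60 min, 25° C, Tris-HCl pH 7.4 buffer with MgCl2, EDTA, BSA. Non-specific binding: 10 μM Prazosin.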

[2] = target: T2, rat adrenergic α1B receptor (Rattus norvegicus, UniProt P15823); experiment: Radioligand binding, adrenergic α1B ([3H]Prazosin); settings: for Percentage inhibition of ligand binding, Adrenergic α1B / inhibition at 0.03 µM / inhibition at 0.1 µM / Percentage inhibition of ligand binding, Adrenergic α1B (0.03 μM) / Percentage inhibition of ligand binding, Adrenergic α1B (0.1 μM): [3H]Prazosin
T2 construct: rat adrenergic α1B receptor obtained from Wistar Rat liver; from tissue; host or cells: Wistar rat liver
T2 sequence (P15823 1-515): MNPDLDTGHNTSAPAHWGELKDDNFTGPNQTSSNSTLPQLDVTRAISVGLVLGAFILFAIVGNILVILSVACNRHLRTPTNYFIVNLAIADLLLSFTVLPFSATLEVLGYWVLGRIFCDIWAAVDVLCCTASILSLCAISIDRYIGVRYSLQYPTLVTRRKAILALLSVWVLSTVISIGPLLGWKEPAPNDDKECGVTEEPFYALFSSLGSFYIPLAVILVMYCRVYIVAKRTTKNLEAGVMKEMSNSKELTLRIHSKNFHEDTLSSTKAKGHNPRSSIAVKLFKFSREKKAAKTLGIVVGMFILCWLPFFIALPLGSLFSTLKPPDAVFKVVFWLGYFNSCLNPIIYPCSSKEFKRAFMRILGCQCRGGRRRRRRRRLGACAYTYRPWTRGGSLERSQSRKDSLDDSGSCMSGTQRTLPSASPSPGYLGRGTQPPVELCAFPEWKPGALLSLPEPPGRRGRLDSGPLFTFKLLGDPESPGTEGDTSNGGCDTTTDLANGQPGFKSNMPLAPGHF
Outline: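 Incubation ran 60 min at 25 °C in Tris-HCl buffer (50 mM, pH 7.4, 0.5 mM EDTA) with Wistar rat liver α1B receptor. 10 μM phentolamine set non-specific binding.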

[3] = target: T3, human recombinant adrenergic α2A receptor (Homo sapiens, UniProt P08913); experiment: Radioligand binding, adrenergic α2A ([3H]MK-912); settings: for Percentage inhibition of ligand binding, Adrenergic α2A / Percentage inhibition of ligand binding, Adrenergic α2A (0.1 μM): 0.1 µM
T3 construct: expressed in transfected cells; host or cells: insect Sf9 cells
T3 sequence (P08913 1-465): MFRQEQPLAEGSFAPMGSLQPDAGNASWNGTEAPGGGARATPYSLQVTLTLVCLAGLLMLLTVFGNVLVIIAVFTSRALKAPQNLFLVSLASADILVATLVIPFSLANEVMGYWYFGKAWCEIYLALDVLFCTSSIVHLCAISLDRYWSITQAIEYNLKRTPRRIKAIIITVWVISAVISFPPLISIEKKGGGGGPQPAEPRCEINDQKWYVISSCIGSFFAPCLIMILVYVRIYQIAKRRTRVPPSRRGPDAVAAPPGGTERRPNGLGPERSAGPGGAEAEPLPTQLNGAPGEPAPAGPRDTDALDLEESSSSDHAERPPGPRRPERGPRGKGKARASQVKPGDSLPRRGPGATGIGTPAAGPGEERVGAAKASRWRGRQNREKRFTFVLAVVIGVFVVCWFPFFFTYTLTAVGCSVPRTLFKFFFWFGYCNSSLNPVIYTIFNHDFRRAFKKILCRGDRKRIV
Outline: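 In 50 mM Tris-HCl (pH 7.4) containing 12.5 mM MgCl2 and 2 mM EDTA, Sf9-expressed receptor was exposed to test compound plus 1 nM [3H]MK-912 at 25 °C for 60 min. Specific binding, corrected using 10 μM WB-4101, was quantified by filtration and counting and expressed as percent inhibition.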

[4] = compound at 0.03 μM, repeat assays, each datapoint shown, 0.03 µM
[5] = compound at 0.1 μM, repeat assays, each datapoint shown, 0.1 µM
[6] = compound at 0.1 μM, [3H]MK-912, repeat assays, each datapoint shown
[7] = compound at 0.03 μM, repeat assays, each datapoint shown, read-out: Percentage inhibition of ligand binding, Adrenergic α2B
[8] = compound at 0.1 μM, repeat assays, each datapoint shown, read-out: Percentage inhibition of ligand binding, Adrenergic α2B
[9] = compound at 0.03 μM, repeat assays, each datapoint shown, read-out: Percentage inhibition of ligand binding, Adrenergic α1B
[10] = compound at 0.1 μM, repeat assays, each datapoint shown, read-out: Percentage inhibition of ligand binding, Adrenergic α1B
[11] = compound at 0.1 μM, [3H]MK-912, repeat assays, each datapoint shown, read-out: Percentage inhibition of ligand binding, Adrenergic α2A
[12] = compound at 0.03 μM, repeat datapoints each shown, 0.03 µM
[13] = compound at 0.1 μM, repeat datapoints each shown, 0.1 µM
[14] = read-out: Percentage inhibition of ligand binding, Adrenergic α2B (0.03 μM), compound at 0.03 μM, repeat datapoints each shown
[15] = read-out: Percentage inhibition of ligand binding, Adrenergic α2B (0.1 μM), compound at 0.1 μM, repeat datapoints each shown
[16] = read-out: Percentage inhibition of ligand binding, Adrenergic α1B (0.03 μM), compound at 0.03 μM, repeat datapoints each shown
[17] = read-out: Percentage inhibition of ligand binding, Adrenergic α1B (0.1 μM), compound at 0.1 μM, repeat datapoints each shown
[18] = compound at 0.1 μM, [3H]MK-912, repeat datapoints each shown
[19] = read-out: Percentage inhibition of ligand binding, Adrenergic α2A (0.1 μM), compound at 0.1 μM, [3H]MK-912, repeat datapoints each shown
[20] = compound at 0.03 μM, [3H]MK-912, repeat assays, each datapoint shown, read-out: Percentage inhibition of ligand binding, Adrenergic α2A

Compound | Percentage inhibition of ligand binding, Adrenergic α1B [2, 5] [%] | inhibition at 0.03 µM [1, 7] [%] | inhibition at 0.1 µM [1, 8] [%] | Ki [1] | inhibition at 0.03 µM [2, 9] [%] | inhibition at 0.1 µM [2, 10] [%] | inhibition at 0.1 µM [3, 11] [%] | Percentage inhibition of ligand binding, Adrenergic α1B (0.1 μM) [2, 13] | inhibition at 0.1 µM [1, 15] [%] | inhibition at 0.1 µM [2, 17] [%] | Percentage inhibition of ligand binding, Adrenergic α2A (0.1 μM) [3, 18] [%] | also measured
CN1CCc2c(n(CC(O)c3ccncc3)c3ccc(Cl)cc23)C1 (single isomer, unassigned) [41a] | 43 | – | – | – | – | – | – | – | – | – | – | Percentage inhibition of ligand binding, Adrenergic α2B [1, 4]: 14%; Percentage inhibition of ligand binding, Adrenergic α2A [3, 6]: −9%
Cc1cnc2c(c1)c1c(n2CCc2ccc(C)nc2)CCN2CCCC12 (single isomer, unassigned) [74a, 10-methyl-7-(2-(6-methylpyridin-3-yl)ethyl)-2,3,5,6,7,11c-hexahydro-1H-pyrido[3′,2′:4,5]pyrrolo[2,3-g]indolizine] | 96 | 93 | 101 | 1.42 nM | 81 | 91 | 22 | – | – | – | – | Ki [2]: 4.72 nM; Ki [3]: 234 nM; Percentage inhibition of ligand binding, Adrenergic α2A [3, 6]: 27%
Cc1ccc2c(c1)c1c(n2CC(O)c2ccncc2)CCN2CCCC12 (single isomer, unassigned) [129d] | – | – | – | 0.35 nM | – | – | – | 94% and 99% | – | – | – | Percentage inhibition of ligand binding, Adrenergic α1B (0.03 μM) [2, 12]: 93%; Ki [3]: 1.87 nM; Percentage inhibition of ligand binding, Adrenergic α2A (0.03 μM) ([3]; compound at 0.03 μM, [3H]MK-912, repeat datapoints each shown, 0.03 µM): 87%
Cc1ccc2c(c1)c1c(n2CC(O)c2ccc(C(N)=O)nc2)CCN(C)C1 (single isomer, unassigned) [144b, 5-[2-(2,8-dimethyl-1,2,3,4-tetrahydro-pyrido[4,3-b]indol-5-yl)-1-hydroxy-ethyl]-pyridine-2-carboxylic acid amide] | – | – | – | 1.7 nM and 2.36 nM | – | – | – | 60% and 66% | 100 | 53 | 4 | Percentage inhibition of ligand binding, Adrenergic α2B (0.03 μM) [1, 12]: 85% and 87%; Percentage inhibition of ligand binding, Adrenergic α2B (0.1 μM) [1, 13]: 102%; inhibition at 0.03 µM [1, 14]: 83%; Percentage inhibition of ligand binding, Adrenergic α1B (0.03 μM) [2, 12]: 36%; inhibition at 0.03 µM [2, 16]: 28%; inhibition at 0.1 µM [3, 19]: 3%
Cc1ccc2c(c1)c1c(n2CC(C)(O)c2cnccn2)CCN2CCCC12 (single isomer, unassigned) [176a] | – | – | – | 0.53 nM | – | – | – | 79% | 105 | – | 32 | Percentage inhibition of ligand binding, Adrenergic α2B (0.03 μM) [1, 12]: 93% and 98% and 100%; inhibition at 0.03 µM [2, 16]: 52%
Cc1cnc2c(c1)c1c(n2CCc2ccc(C)nc2)CCN(C)C1 [II-110, 3,6-dimethyl-9-(2-(6-methylpyridin-3-yl)ethyl)-6,7,8,9-tetrahydro-5H-pyrrolo[2,3-b:4,5-c′]dipyridine] | – | – | – | – | – | – | – | 36% | 47 | 25 | 2 | inhibition at 0.03 µM [1, 14]: 11%; inhibition at 0.1 µM [3, 19]: 1%
Cc1ccc2c(c1)c1c(n2CC(O)c2ccncc2)CCN(C)C1 (stereo not shown) [compound 3] | 54 | 99 | 100 | 0.64 nM | 24 | 51 | – | – | – | – | – | Percentage inhibition of ligand binding, Adrenergic α2B [1, 5]: 103%; Ki [3]: 0.26 nM; inhibition at 0.03 µM [3, 20]: 4%
Cc1ccc2c(c1)c1c(n2CC(C)(O)c2cccnc2)CCN(C)C1 (stereo not shown) [compound 5, 1-(1,2,3,4-tetrahydro-2,8-dimethylpyrido[4,3-b]indol-5-yl)-2-(pyridin-3-yl)propan-2-ol] | 21 | 100 | 96 | – | – | 14 | 13 | – | – | – | – | –
Cc1ccc2c(c1)c1c(n2CCc2cccnc2)CCN(C)C1 [compound 61] | – | 65 | 85 | 5.89 nM | 28 | 60 | 30 | – | – | – | – | Percentage inhibition of ligand binding, Adrenergic α2B [1, 4]: 80%; Percentage inhibition of ligand binding, Adrenergic α2B [1, 5]: 94%
Cc1ccc2c(c1)c1c(n2CC2(c3ccccc3)OCCO2)CCN(C)C1 [compound 83] | 15 | 63 | 78 | – | – | 9 | 21 | – | – | – | – | Percentage inhibition of ligand binding, Adrenergic α2A [3, 6]: 29%
CCN1CCc2c(c3cc(C)ccc3n2CCc2ccncc2)C1 [compound 85] | – | 40 | 60 | – | -3 | 26 | 12 | – | – | – | – | –
Cc1ccc2c(c1)c1c(n2CCc2ccc(CO)nc2)CCN(C)C1 [compound 91] | 53 | 53 | 82 | 9.84 nM and 10.7 nM and 12 nM | 25 | 52 | 5 | – | 87 | 58 | – | Percentage inhibition of ligand binding, Adrenergic α2B [1, 4]: 56%; Percentage inhibition of ligand binding, Adrenergic α2B [1, 5]: 83%; Percentage inhibition of ligand binding, Adrenergic α1B [2, 4]: 28%; inhibition at 0.03 µM [2, 16]: 32%; inhibition at 0.03 µM [3, 20]: 6%
Cc1ccc2c(c1)c1c(n2CC(C)(O)c2ccc(O)cc2)CCN(C)C1 (stereo not shown) [compound 98] | – | – | – | – | – | – | – | 83% | 96 | 81 | 32 | Percentage inhibition of ligand binding, Adrenergic α2B (0.1 μM) [1, 13]: 103%; inhibition at 0.1 µM [3, 19]: 26%

— US8791132B2, “Compounds and methods for treatment of hypertension” (Medivation Technologies, Inc., priority 2011, dated 2014)
